The IC50 is the midpoint of a concentration-inhibition curve.

IgE-Tb / FcεRIα-Y131A-AF488, sequence (P01854 1-427 limits assumed, stated change not applied): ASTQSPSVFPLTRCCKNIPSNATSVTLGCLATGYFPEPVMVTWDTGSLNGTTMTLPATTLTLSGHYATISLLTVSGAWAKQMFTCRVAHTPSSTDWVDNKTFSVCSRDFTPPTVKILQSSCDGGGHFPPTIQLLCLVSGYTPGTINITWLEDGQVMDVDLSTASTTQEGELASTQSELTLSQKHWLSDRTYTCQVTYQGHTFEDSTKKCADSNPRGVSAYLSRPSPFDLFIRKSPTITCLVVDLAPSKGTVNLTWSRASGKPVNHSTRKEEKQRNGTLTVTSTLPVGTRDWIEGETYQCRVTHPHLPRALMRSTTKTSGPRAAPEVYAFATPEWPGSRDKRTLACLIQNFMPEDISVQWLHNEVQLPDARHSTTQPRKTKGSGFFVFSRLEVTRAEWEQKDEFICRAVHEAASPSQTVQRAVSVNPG

This test concerns the target IgE-Tb / FcεRIα-Y131A-AF488 (Homo sapiens, UniProt P01854). Briefly: IgE-Tb / FcεRIα-Y131A-AF488 FRET assay (protocol for examples 1 to 233). It is filed as binding. As to conditions: examples 1 to 233: 5 nM IgE-Tb, 25 nM FcεRIα-Y131A-AF488, incubated 2 hours at room temperature; read-out: Y131A FRET IC50 range. The essentials: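 TR-FRET displacement with 5 nM IgE-Tb and 25 nM FcεRIα-Y131A-AF488 (final), 10-point 3-fold compound dilutions from typically 10 μM top, 2% DMSO, 2 h at room temperature. Excitation 330 nm, 520/495 nm emission ratio; MIN set with 200 nM unlabelled FcεRIα. IC50 from four-parameter logistic fit of percent inhibition.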
Consider `CCOC(=O)N=C(Nc1ccc(C)cc1)NC1CCc2sc(NC(=O)C3CC3)c(C(=O)NCC3CC3)c2C1` (stereo not shown) [Example 149, ethyl N-[[[2-(cyclopropanecarbonylamino)-3-(cyclopropylmethylcarbamoyl)-4,5,6,7-tetrahydrobenzothiophen-5-yl]amino]-(4-methylanilino)methylene]carbamate], for which the IC50 was under 1000 nM.

As to `Cc1ncccc1Nc1nccn1[C@H]1CCc2sc(NC(=O)C3CC3)c(C(=O)NCC3CC3)c2C1` [Example 150, (5S)-2-(Cyclopropanecarbonylamino)-N-(cyclopropylmethyl)-5-[2-[(2-methyl-3-pyridyl)amino]imidazol-1-yl]-4,5,6,7-tetrahydrobenzothiophene-3-carboxamide], the IC50 is under 1000 nM.

As for `CCNC(=C[N+](=O)[O-])NC1CCc2sc(NC(=O)C3CC3)c(C(=O)NCC3CC3)c2C1` (stereo not shown) [Example 151, 2-(cyclopropanecarbonylamino)-N-(cyclopropylmethyl)-5-[[1-(ethylamino)-2-nitro-vinyl]amino]-4,5,6,7-tetrahydrobenzothiophene-3-carboxamide], the IC50 was 1000 to 10000 nM.

For the compound `Cc1cc(=O)[nH]c(NC2CCc3sc(NC(=O)C4CC4)c(C(=O)NCC4CC4)c3C2)n1` (stereo not shown) [Example 152, 2-(Cyclopropanecarbonylamino)-N-(cyclopropylmethyl)-5-[(4-methyl-6-oxo-1H-pyrimidin-2-yl)amino]-4,5,6,7-tetrahydrobenzothiophene-3-carboxamide], the IC50 was under 1000 nM.

`CNC(=O)c1ncn([C@H]2CCc3sc(NC(=O)C4CC4)c(C(=O)NCC4CC4)c3C2)c1N` [Example 153, 5-amino-1-[(5S)-2-cyclopropaneamido-3-[(cyclopropylmethyl)carbamoyl]-4,5,6,7-tetrahydro-1-benzothiophen-5-yl]-N-methyl-1H-imidazole-4-carboxamide]: the IC50 is under 1000 nM.

On to `NC(=O)c1ncn([C@H]2CCc3sc(NC(=O)C4CC4)c(C(=O)NCC4CC4)c3C2)c1N` [Example 154, 5-amino-1-[(5S)-2-cyclopropaneamido-3-[(cyclopropylmethyl)carbamoyl]-4,5,6,7-tetrahydro-1-benzothiophen-5-yl]-1H-imidazole-4-carboxamide], for which the IC50 was under 1000 nM.

In the case of `O=C(NCC1CC1)c1c(NC(=O)C2CC2)sc2c1CC(n1ccnc1Nc1ccccc1)CC2` (stereo not shown) [Example 155, 5-(2-Anilinoimidazol-1-yl)-2-(cyclopropanecarbonylamino)-N-(cyclopropylmethyl)-4,5,6,7-tetrahydrobenzothiophene-3-carboxamide], the IC50 is under 1000 nM.

`CCNC(=NC#N)N[C@H]1CCc2sc(NC(=O)C3CC3)c(C(=O)NCC3CC3)c2C1` [Example 156, (5S)-5-[[N′-cyano-N-ethyl-carbamimidoyl]amino]-2-(cyclopropanecarbonylamino)-N-(cyclopropylmethyl)-4,5,6,7-tetrahydrobenzothiophene-3-carboxamide]: the IC50 is under 1000 nM.

Consider `CCNC(=O)NC1CCc2sc(NC(=O)C3CC3)c(C(=O)NCC3CC3)c2C1` (stereo not shown) [Example 157, 2-(Cyclopropanecarbonylamino)-N-(cyclopropylmethyl)-5-(ethylcarbamoylamino)-4,5,6,7-tetrahydrobenzothiophene-3-carboxamide], for which the IC50 fell in the range of 1000 to 10000 nM.

Regarding `O=C(NCC1CC1)c1c(NC(=O)C2CC2)sc2c1CC(Nc1cc(=O)cc[nH]1)CC2` (stereo not shown) [Example 158, 2-(Cyclopropanecarbonylamino)-N-(cyclopropylmethyl)-5-[(4-oxo-1H-pyridin-2-yl)amino]-4,5,6,7-tetrahydrobenzothiophene-3-carboxamide], the IC50 was under 1000 nM.

Regarding `Cc1nnc(-c2ccc(N[C@H]3CCc4sc(NC(=O)C5CC5)c(C(=O)NCC5CC5)c4C3)cn2)o1` [Example 159, (5S)-2-(cyclopropanecarbonylamino)-N-(cyclopropylmethyl)-5-[[6-(5-methyl-1,3,4-oxadiazol-2-yl)-3-pyridyl]amino]-4,5,6,7-tetrahydrobenzothiophene-3-carboxamide], the IC50 was under 1000 nM.

On to `CCNc1nnnn1C1CCc2sc(NC(=O)C3CC3)c(C(=O)NCC3CC3)c2C1` (stereo not shown) [Example 160, 2-(Cyclopropanecarbonylamino)-N-(cyclopropylmethyl)-5-[5-(ethylamino)tetrazol-1-yl]-4,5,6,7-tetrahydrobenzothiophene-3-carboxamide], for which the IC50 was under 1000 nM.

Regarding `O=C(NCC1CC1)c1c(NC(=O)C2CC2)sc2c1CC(Nc1nc[nH]n1)CC2` (stereo not shown) [Example 161, 2-(Cyclopropanecarbonylamino)-N-(cyclopropylmethyl)-5-(1H-1,2,4-triazol-3-ylamino)-4,5,6,7-tetrahydrobenzothiophene-3-carboxamide], the IC50 was under 1000 nM.

With `Cc1cc(Nc2nncn2[C@@H]2CCc3sc(NC(=O)C4CC4)c(C(=O)NCC4CC4)c3C2)n(C)n1` [Example 162, (5R)-2-(Cyclopropanecarbonylamino)-N-(cyclopropylmethyl)-5-[3-[(2,5-dimethylpyrazol-3-yl)amino]-1,2,4-triazol-4-yl]-4,5,6,7-tetrahydrobenzothiophene-3-carboxamide], the IC50 is under 1000 nM.

With `Cn1cc(-n2cnnc2N[C@H]2CCc3sc(NC(=O)C4CC4)c(C(=O)NCC4CC4)c3C2)cn1` [Example 163, (5S)-2-(Cyclopropanecarbonylamino)-N-(cyclopropylmethyl)-5-[[4-(1-methylpyrazol-4-yl)-1,2,4-triazol-3-yl]amino]-4,5,6,7-tetrahydrobenzothiophene-3-carboxamide], the IC50 was 1000 to 10000 nM.

In the case of `CCOC(=O)c1cn([C@H]2CCc3sc(NC(=O)C4CC4)c(C(=O)NCC4CC4)c3C2)cn1` [Example 164, ethyl 1-[(5S)-2-cyclopropaneamido-3-[(cyclopropylmethyl)carbamoyl]-4,5,6,7-tetrahydro-1-benzothiophen-5-yl]-1H-imidazole-4-carboxylate], the IC50 is under 1000 nM.

As for `O=C(NCC1CC1)c1c(NC(=O)C2CC2)sc2c1CC(Nc1nncn1-c1ccc(F)cc1)CC2` (stereo not shown) [Example 165, 2-(Cyclopropanecarbonylamino)-N-(cyclopropylmethyl)-5-[[4-(4-fluorophenyl)-1,2,4-triazol-3-yl]amino]-4,5,6,7-tetrahydrobenzothiophene-3-carboxamide], the IC50 was under 1000 nM.

Take `O=C(NCC1CC1)c1c(NC(=O)C2CC2)sc2c1C[C@@H](Nc1ncc[nH]1)CC2` [Example 166, (5S)-2-(Cyclopropanecarbonylamino)-N-(cyclopropylmethyl)-5-(1H-imidazol-2-ylamino)-4,5,6,7-tetrahydrobenzothiophene-3-carboxamide]: the concentration for half-maximal inhibition (IC50) was under 1000 nM.

Consider `Cc1cc(Nc2nncn2C2CCc3sc(NC(=O)C4CC4)c(S(=O)(=O)NCC(C)C)c3C2)n(C)n1` (stereo not shown) [Example 167], for which the half-inhibitory concentration (IC50) was under 1000 nM.

For the compound `CON=C(Nc1ccc(C)cc1)NC1CCc2sc(NC(=O)C3CC3)c(C(=O)NCC3CC3)c2C1` (stereo not shown) [Example 168, 2-(Cyclopropanecarbonylamino)-N-(cyclopropylmethyl)-5-[[N′-methoxy-N-(p-tolyl)carbamimidoyl]amino]-4,5,6,7-tetrahydrobenzothiophene-3-carboxamide], the IC50 is under 1000 nM.

Regarding `Cc1ccc(NC2=NS(=O)(=O)N=C2NC2CCc3sc(NC(=O)C4CC4)c(C(=O)NCC4CC4)c3C2)cc1` (stereo not shown) [Example 169, 2-(Cyclopropanecarbonylamino)-N-(cyclopropylmethyl)-5-[[4-(4-methylanilino)-1,1-dioxo-1,2,5-thiadiazol-3-yl]amino]-4,5,6,7-tetrahydrobenzothiophene-3-carboxamide], the IC50 is under 1000 nM.

For the compound `O=C(NCC1CC1)c1c(NC(=O)C2CC2)sc2c1C[C@@H](Nc1nccn1-c1cccnc1)CC2` [Example 170, (5S)-2-(Cyclopropanecarbonylamino)-N-(cyclopropylmethyl)-5-[[1-(3-pyridyl)imidazol-2-yl]amino]-4,5,6,7-tetrahydrobenzothiophene-3-carboxamide], the IC50 lay in the range of 1000 to 10000 nM.

Turning to `Nc1cnnn1C1CCc2sc(NC(=O)C3CC3)c(C(=O)NCC3CC3)c2C1` (stereo not shown) [Example 171, 5-(5-Aminotriazol-1-yl)-2-(cyclopropanecarbonylamino)-N-(cyclopropylmethyl)-4,5,6,7-tetrahydrobenzothiophene-3-carboxamide], the IC50 is under 1000 nM.

In the case of `COc1ccccc1NC(=O)NC1CCc2sc(NC(=O)C3CC3)c(C(=O)NCC3CC3)c2C1` (stereo not shown) [Example 172, 2-(Cyclopropanecarbonylamino)-N-(cyclopropylmethyl)-5-[(2-methoxyphenyl)carbamoylamino]-4,5,6,7-tetrahydrobenzothiophene-3-carboxamide], the IC50 was under 1000 nM.

Consider `O=C(NC1CCc2sc(NC(=O)C3CC3)c(C(=O)NCC3CC3)c2C1)c1ccncc1` (stereo not shown) [Example 173, N-[2-(Cyclopropanecarbonylamino)-3-(cyclopropylmethylcarbamoyl)-4,5,6,7-tetrahydrobenzothiophen-5-yl]pyridine-4-carboxamide], for which the IC50 is 1000 to 10000 nM.

On to `O=C(NCC1CC1)c1c(NC(=O)C2CC2)sc2c1CC(NCc1ccccc1)CC2` (stereo not shown) [Example 174, 5-(Benzylamino)-2-(cyclopropanecarbonylamino)-N-(cyclopropylmethyl)-4,5,6,7-tetrahydrobenzothiophene-3-carboxamide], for which the IC50 is 10000 to 50000 nM.

On to `O=C(NCC1CC1)c1c(NC(=O)C2CC2)sc2c1CC(Nc1nc3ccccc3[nH]1)CC2` (stereo not shown) [Example 175, 5-(1H-Benzimidazol-2-ylamino)-2-(cyclopropanecarbonylamino)-N-(cyclopropylmethyl)-4,5,6,7-tetrahydrobenzothiophene-3-carboxamide], for which the IC50 was under 1000 nM.

On to `NC(=NO)NC1CCc2sc(NC(=O)C3CC3)c(C(=O)NCC3CC3)c2C1` (stereo not shown) [Example 176, 2-(Cyclopropanecarbonylamino)-N-(cyclopropylmethyl)-5-[[N′-hydroxycarbamimidoyl]amino]-4,5,6,7-tetrahydrobenzothiophene-3-carboxamide], for which the IC50 was under 1000 nM.

The record behind these values is patent publication US12018021B2 (UCB Biopharma SRL, priority 2018, dated 2024).
